In paper PMC6112376, “Comprehensive Analyses and Prioritization of Tox21 10K Chemicals Affecting Mitochondrial Function by in-Depth Mechanistic Studies” (Environmental Health Perspectives, 2018):
Where two headings read alike, the source gives them in different places.

How the values were obtained:
[1] = system: HepG2 cells; settings: cited from earlier work
[2] = system: HepG2 cells; assay: cells; settings: Homo sapiens; for IC50: HepG2, read-out: MMP assays IC50 (µM) HepG2; for Emax: HepG2, read-out: MMP assays efficacy (%) HepG2
[3] = system: rat primary hepatocytes; assay: MMP assay in rat primary hepatocytes; settings: for MMP assays IC50 (µM) Rat Hepatocytes / MMP assays efficacy (%) Rat Hepatocytes: mean ± SD of three experiments; for IC50: Rattus norvegicus, Hepatocyte, read-out: MMP assays IC50 (µM) Rat Hepatocytes
[4] = read-out: MMP assays IC50 (µM) qHTS-HepG2
[5] = read-out: MMP assays IC50 (µM), qHTS-HepG2

Row | SMILES | MMP assays efficacy (%) qHTS-HepG2 [1] [%] | IC50 [1, 4] [µM] | IC50 [2] [µM] | Emax [2] [%] | MMP assays IC50 (µM) Rat Hepatocytes [3] | MMP assays efficacy (%) Rat Hepatocytes [3] | IC50 [3] [µM] | IC50 [1, 5] [µM]
1 | CC(C)(C)c1ccc(OC(=O)c2ccccc2O)cc1 [4-tert-Butylphenyl salicylate] | -78±23 | 28.4 ± 3.64 | 35.5 | 90 | inactive | inactive | – | –
2 | CC(O)(c1ccc(Cl)cc1)c1ccc(Cl)cc1 [Chlorfenethol] | -110±19 | 26.3 ± 7.53 | 12.6 | 100 | – | -90±2% | 18.9 ± 5.35 | –
3 | Oc1ccc(C(c2ccc(O)cc2)(C(F)(F)F)C(F)(F)F)cc1 [Bisphenol AF] | -114±10 | 5.44 ± 1.42 | 5.01 | 102 | – | – | 37.3 ± 6.7 | –
4 | Cc1cc(O)c(C(C)(C)C)cc1C(C)(C)C [4,6-Di-tert-butyl-m-cresol] | – | 2.25 ± 1.49 | 2.51 | 96 | – | -103±14% | 45.9 ± 14.7 | –
5 | C#C[C@]1(O)CC[C@H]2[C@@H]3CCC4=CC(=NO)CC[C@@H]4[C@H]3CC[C@@]21CC (mixture of isomers) [Norelgestromin] | -122±2 | – | 19.4 | 121 | – | -55±21% | 13.4 ± 12.3 | 13.5 ± 6.64
6 | CCOC1O[C@H]([C@@H](COCc2ccccc2)OCc2ccccc2)[C@H](OCc2ccccc2)[C@H]1O (some centres unmarked) [Tribenoside] | -114±21 | – | 11.7 | 61 | inactive | inactive | – | 11.8 ± 0.8
7 | C#C[C@]1(O)CC[C@H]2[C@@H]3CCC4=CCCC[C@@H]4[C@H]3CC[C@@]21C [Lynestrenol] | -104±10 | – | 7.4 | 55 | inactive | inactive | – | 16.6 ± 2.15
8 | Cc1cc(O)c(C(C)(C)C)cc1Sc1cc(C(C)(C)C)c(O)cc1C [4,4'-Thiobis(6-tert-butyl-m-cresol)] | -104±19 | 1.86 ± 1.18 | 3.16 | 115 | – | -78±17% | 24.8 ± 11.8 | –
9 | CC(C)(C)c1ccc(O)c(O)c1 [Compound 4-tert-Butylcatechol] | -103±20 | 34.3 ± 15 | 31.6 | 90 | inactive | inactive | – | –
10 | CCOc1ccc(/N=N/c2ccc(N)cc2N)cc1 [Ethoxazene] | -91±7 | 2.7 ± 1.13 | 2.82 | 94 | – | -106±32% | 4.96 ± 3.42 | –
11 | CNc1ncnc2nc[nH]c12 [(N-6)-Methyladenine] | -65±7 | 5.98 ± 5.84 | 6.31 | 56 | inactive | inactive | – | –
12 | Clc1ccc(Sc2cc(Cl)c(Cl)cc2Cl)cc1 [Tetrasul] | -77±0 | – | 2.51 | 72 | inactive | inactive | – | 1.77 ± 0.25
13 | CCC(CC)(CC(=O)Nc1cccc(/C=C/c2nc(C3CCC3)cs2)c1)C(=O)O [Cinalukast] | -92±29 | 28.8 ± 1.17 | 17.3 | 96 | – | -67±19% | 13.5 ± 5.36 | –
14 | CC(=O)Nc1ccc(S(=O)(=O)Nc2ccc([N+](=O)[O-])cc2)cc1 [Sulfanitran] | -54±11 | – | 17.3 | 67 | – | -63±14% | 19.5 ± 2.25 | 26.6 ± 8.77
15 | CCC(=O)Oc1ccc(/C(CC)=C(\CC)c2ccc(OC(=O)CC)cc2)cc1 [Diethylstilbestrol dipropionate] | -112±3 | 10.5 ± 2.66 | 7.08 | 101 | – | -38±22% | 49.3 ± 19.5 | –
16 | CC1=NN(c2ccccc2)C(=O)C1 [Compound 1-Phenyl-3-methyl-5-pyrazolone] | -121±16 | 31.8 ± 4.28 | 28.2 | 82 | – | -62±9% | 25.8 ± 10.1 | –
17 | Oc1ccc(Sc2ccc(O)cc2)cc1 [4,4'-Thiodiphenol] | -100±12 | 21.1 ± 2.7 | 25.1 | 115 | – | -49±9% | 24.7 ± 9.79 | –
18 | O=C(Nc1ccc(O)cc1)c1ccccc1O [Osalmid] | -96±3 | – | 6.31 | 101 | – | -93±20% | 30 ± 21.3 | 6.68 ± 0.77
19 | Cc1ccc2c(Br)cc(Br)c(O)c2n1 [Broquinaldol] | -114±44 | 26.6 ± 4 | 12.6 | 114 | – | -87±93% | 38.6 ± 34.6 | –
20 | Oc1ccc(-c2ccccc2)cc1Cl [Compound 2-Chloro-4-phenylphenol] | -138±26 | 15.4 ± 7.86 | 15.8 | 99 | – | -109±36% | 31.8 ± 3.65 | –
21 | CC(C)C(=O)OCC(=O)[C@@]12O[C@H](C3CCCCC3)O[C@@H]1C[C@H]1[C@@H]3CCC4=CC(=O)C=C[C@]4(C)[C@H]3[C@@H](O)C[C@@]12C [Ciclesonide] | – | 7.91 ± 1.38 | 15.5 | 103 | inactive | inactive | – | –
22 | Oc1ccc(/N=N/c2ccccc2)cc1 [p-Phenylazophenol] | -96±7 | – | 10 | 107 | inactive | inactive | – | 4.06 ± 1.23
23 | Cc1c(Nc2ncccc2C(=O)O)cccc1C(F)(F)F [Flunixin meglumine] | -123±14 | – | 7.4 | 83 | – | -107±11% | 5.77 ± 4.59 | 9.02
24 | CCCCCOC(=O)c1ccc(O)cc1 [Pentylparaben] | -119±16 | – | 14.1 | 114 | inactive | inactive | – | 8.74 ± 1.65
25 | O=C1c2cccc(O)c2C(=O)c2c(O)cc(CO)cc21 [Aloe-emodin] | -78±8 | 1.79 ± 1.54 | 7.08 | 90 | – | -48±19% | 8.43 ± 5.96 | –
26 | Cc1cc(/C=C/c2ccc3cc(N(C)C)ccc3[n+]2C)c(C)n1-c1ccccc1 [Pyrvinium pamoate] | -108±33 | – | 0.17 | 91 | – | – | – | 2.02 ± 1.2
27 | Nc1ccc(N)c([N+](=O)[O-])c1 [2-Nitro-1,4-phenylenediamine] | -85±13 | 7.07 ± 6.53 | 12.6 | 87 | – | – | – | –
28 | O=C1CN(/N=C/c2ccc([N+](=O)[O-])o2)C(=O)N1 [Nitrofurantoin] | -70±6 | – | – | 87 | – | – | – | 26.3 ± 6.35
